Patent US5086066A, “Method of providing anxiolytic and antipsychotic treatment with substituted benzamides” (priority 1988, dated 1992)

Columns and labels:
rats = assay: hyperactivity induced by injection of amphetamine into the nucleus accumbens (motor activity), antipsychotic activity; assay type: in vivo; conditions: amphetamine alone 20 μg bilaterally into nucleus accumbens
Description: Tests were conducted to measure the antipsychotic activity of the compounds of the invention. In particular, the hyperactivity induced in rats by the perfusion of amphetamine into the nucleus accumbens was evaluated. This test consists in determining the effect of the compounds of the invention on hyperactivity produced in rats by the injection of amphetamine into the nucleus accumbens. Hyperactivity was induced by injecting 20 μg of amphetamine bilaterally into the nucleus accumbens. The compounds of the invention were administered subcutaneously at doses of 1 mg/kg and 10 mg/kg, 40 minutes before the injection of amphetamine. For each dose of test product, a group of 5 animals was used. A group treated only with amphetamine and a reference group which received only an inert vehicle comprised 10 animals.
Immediately after the injection of amphetamine, the rats were placed in individual cages equipped with photoelectric cells. Motor activity, characterized by the number of shifts from place to place in these cages, was determined by the number of interruptions of a light beam striking these cells. The measurements were made during the 80 minutes following the injection of amphetamine. The results, expressed as the number of shifts from place to place per 10-minute period, are collated in Table 2.

mice = assay: two compartment (dark and light) box test, anxiolytic activity; assay type: in vivo; conditions: for % time in black compartment / Black compartment rearings/5 min / Black compartment transits/5 min / Delay white → black / White compartment rearings/5 min / White compartment transits/5 min: 40 min after administration, S.E.M. <12.6%, n = 5
Description: The two compartment box test was conducted in mice to evaluate anxiolytic activity. This test is based on a natural aversion of mice to light. The apparatus used is a box containing two compartments, one of which is dark (labeled "black compartment" in the Table 1) and the other illuminated (labeled "white compartment" in Table 1). The apparatus is designed to allow the animal to choose between staying in either of the two compartments. Under normal conditions, the mice avoid light and usually remain in the dark compartment. Under the influence of an anxiolytic agent, however, exploration of the illustrated compartment predominates. The test consists of placing each mouse in the center of the illuminated compartment and observing the animal's behavior by video system for 5 minutes. The number of exploratory rearings and the number of displacements (the crossing of lines traced on the floor of each compartment constitute "passages") are then recorded for each compartment. An anxiolytic effect induced by a drug, such as diazepam, is characterized by an increase in the number of exploratory rearings and in the number of passages into the illuminated compartment. The compounds of the invention were injected subcutaneously at variable doses, each dose being administered to a group of 5 mice.

[1] = acute toxicity, median lethal dose (LD50) intravenously; conditions: mouse, in vivo, iv
Text: The compounds of the invention were also subjected to a study of acute toxicity when injected intravenously in male mice and female mice, which enabled the median lethal doses (LD50) to be determined.

Row | SMILES | % time in black compartment (mice; 0.1 mg/kg s.c.) | Black compartment rearings/5 min (mice; 0.1 mg/kg s.c.) | Black compartment transits/5 min (mice; 0.1 mg/kg s.c.) | Delay white → black (mice; 0.1 mg/kg s.c.) | White compartment rearings/5 min (mice; 0.1 mg/kg s.c.) | White compartment transits/5 min (mice; 0.1 mg/kg s.c.) | LD50 ([1]; female mice) | LD50 ([1]; male mice) | further results
1 | CC(N)Cc1ccccc1 (stereo not drawn) [Amphetamine, amphetamine, reference compound] | – | – | – | – | – | – | – | – | Motor activity (rats; time 10 min): 31 ± 4 shifts from place to place/10; Motor activity (rats; time 20 min): 48 ± 5 shifts from place to place/10; Motor activity (rats; time 30 min): 66 ± 7 shifts from place to place/10; Motor activity (rats; time 40 min): 59 ± 7 shifts from place to place/10; Motor activity (rats; time 50 min): 36 ± 5 shifts from place to place/10; Motor activity (rats; time 60 min): 29 ± 4 shifts from place to place/10; Motor activity (rats; time 70 min): 19 ± 3 shifts from place to place/10; Motor activity (rats; time 80 min): 8 ± 3 shifts from place to place/10
2 | C=CCN1CCCC1CNC(=O)c1cc(Cl)c(NC2=NC(C)CN2)cc1OC (stereo not drawn) [Compound 2, N-(1-allyl-2-pyrrolidinylmethyl)-2-methoxy-4-[(4,5-dihydro-4-methyl-1H-imidazol-2-yl)amino]-5-chlorobenzamide] | 29% | 20 rearings/5 min | 25 transits/5 min | 20 s | 83 rearings/5 min | 80 transits/5 min | 42 mg/kg | 42 mg/kg | % time in black compartment (mice; 0.01 mg/kg s.c.): 49%; Black compartment rearings/5 min (mice; 0.01 mg/kg s.c.): 27 rearings/5 min; Black compartment transits/5 min (mice; 0.01 mg/kg s.c.): 30 transits/5 min; Delay white → black (mice; 0.01 mg/kg s.c.): 18 s; White compartment rearings/5 min (mice; 0.01 mg/kg s.c.): 43 rearings/5 min; White compartment transits/5 min (mice; 0.01 mg/kg s.c.): 51 transits/5 min; minimal effective dose (mice; Mus musculus, sc, 40 min, subcutaneous, mice, read-out: dose at and above which anxiolytic activity is manifested): ≥ 0.01 mg/kg
3 | CCN(CC)CCNC(=O)c1cc(Br)c(NC2=NC(C)CN2)cc1OC (stereo not drawn) [Compound 3, N-[2-(diethylamino)ethyl]-2-methoxy-4-[(4,5-dihydro-4-methyl-1H-imidazol-2-yl)amino]-5-bromo-benzamide] | 30% | 18 rearings/5 min | 18 transits/5 min | 23 s | 97 rearings/5 min | 104 transits/5 min | 24 mg/kg | 22 mg/kg | –
4 | CCN1CCCC1CNC(=O)c1cc(Cl)c(NC2=NC(C)CN2)cc1OC (stereo not drawn) [Compound 5, N-(1-ethyl-2-pyrrolidinylmethyl)-2-methoxy-4-[(4,5-dihydro-4-methyl-1H-imidazol-2-yl)amino]-5-chlorobenzamide] | – | – | – | – | – | – | – | – | % time in black compartment (mice; 1 mg/kg s.c.): 32%; Black compartment rearings/5 min (mice; 1 mg/kg s.c.): 14 rearings/5 min; Black compartment transits/5 min (mice; 1 mg/kg s.c.): 19 transits/5 min; Delay white → black (mice; 1 mg/kg s.c.): 23 s; White compartment rearings/5 min (mice; 1 mg/kg s.c.): 65 rearings/5 min; White compartment transits/5 min (mice; 1 mg/kg s.c.): 89 transits/5 min; % time in black compartment (mice; 10 mg/kg s.c.): 32%; Black compartment rearings/5 min (mice; 10 mg/kg s.c.): 15 rearings/5 min; Black compartment transits/5 min (mice; 10 mg/kg s.c.): 16 transits/5 min; Delay white → black (mice; 10 mg/kg s.c.): 22 s; White compartment rearings/5 min (mice; 10 mg/kg s.c.): 68 rearings/5 min; White compartment transits/5 min (mice; 10 mg/kg s.c.): 80 transits/5 min
5 | CCN(CC)CCNC(=O)c1cc(Br)c(NC2=NCCN2)cc1OC [Compound 6, N-[2-(diethylamino)ethyl]-2-methoxy-4-[(4,5-dihydro-1H-imidazol-2-yl)amino]-5-bromobenzamide] | 27% | 39 rearings/5 min | 50 transits/5 min | 13 s | 40 rearings/5 min | 48 transits/5 min | 118 mg/kg | 103 mg/kg | –
6 | CCN(CC)CCNC(=O)c1cc(Cl)c(NC2=NCCO2)cc1OC [Compound 7, N-[2-(diethylamino)ethyl]-2-methoxy-4-[(4,5-dihydro-2-oxazolyl)amino]-5-chlorobenzamide] | 27% | 16 rearings/5 min | 16 transits/5 min | 24 s | 69 rearings/5 min | 68 transits/5 min | – | – | –
